Source: patent publication US8211937B2, “7-pyrollyl 9-aminoacyl tetracycline compounds and methods of use thereof” (Paratek Pharmaceuticals, Inc., priority 2001, dated 2012)
In brackets after ≈: the same amount, converted by molar mass.

Key:
Assay in all cases: MIC, broth microdilution growth inhibition
Assay type in all cases: cell-based
Conditions in all cases: Mueller-Hinton broth, 37° C., 18 h, unit assumed
E. faecium 97 Tet R = tested on: E. faecium 97 Tet R
Method: (§1) Growth inhibitory activity was determined on liquid medium by the antibiotic dilution technique using 96-well microtiter system plates containing two-fold dilutions of antibiotic-agent in 0.2 ml. of Mueller-Hinton broth. Plates were inoculated with each test organism to yield a final inoculum of 5×10^5 CFU/ml and were incubated aerobically at 37° C. for 18 h. The MIC was defined as the lowest concentration of antibacterial agent that inhibited development of visible growth in the microdilution wells. GAR936 can be prepared e.g. as in J. Med Chem 1994, 37 184-188. Minocyline is available from e.g. Aldrich.

E. faecalis ATCC 29212 = tested on: E. faecalis ATCC 29212
Method: as §1

E. faecalis 73 Tet R = tested on: E. faecalis 73 Tet R
Method: as §1

S. aureus GFX01596 Tet R = tested on: S. aureus GFX01596 Tet R
Method: as §1

S. pneumoniae 157 = tested on: S. pneumoniae 157
Method: as §1

S. aureus ATCC 29213 = tested on: S. aureus ATCC 29213
Method: as §1

P. aeruginosa 3808 = tested on: P. aeruginosa 3808
Method: as §1

E. coli 851E = tested on: E. coli 851E
Method: as §1

[1] = tested on: M. catarrhalis ATCC 23246
Method: as §1

H. influenzae ATCC 4927 = tested on: H. influenzae ATCC 4927
Method: as §1

E. coli D1-209 Tet R = tested on: E. coli D1-209 Tet R
Method: as §1

K. Pneumoniae 3226 = tested on: K. Pneumoniae 3226
Method: as §1

A. calcoaceticus 1726 = tested on: A. calcoaceticus 1726
Method: as §1

E. coli 851ML308-225 = tested on: E. coli 851ML308-225
Method: as §1

E. coli D1-299 Tet R = tested on: E. coli D1-299 Tet R
Method: as §1

E. faecium 494 = tested on: E. faecium 494
Method: as §1

[2] = tested on: S. pneumoniae GFX01778 Tet R
Method: as §1

Compound	MIC (E. faecium 97 Tet R)	MIC (E. faecalis ATCC 29212)	MIC (E. faecalis 73 Tet R)	MIC (S. aureus GFX01596 Tet R)	MIC (S. pneumoniae 157)	MIC (S. aureus ATCC 29213)	MIC (P. aeruginosa 3808)	MIC (E. coli 851E)	MIC [1]	MIC (H. influenzae ATCC 4927)	MIC (E. coli D1-209 Tet R)	MIC (K. Pneumoniae 3226)	MIC (A. calcoaceticus 1726)	MIC (E. coli 851ML308-225)	MIC (E. coli D1-299 Tet R)	MIC (E. faecium 494)	MIC [2]
CN(C)c1ccc(O)c2c1C[C@H]1C[C@H]3[C@H](N(C)C)C(=O)C(C(N)=O)=C(O)[C@@]3(O)C(=O)C1=C2O [MINO, Minocyline]	32 µg/mL (≈ 69.9 µM)	2 µg/mL (≈ 4.37 µM)	32 µg/mL (≈ 69.9 µM)	0.12 µg/mL (≈ 0.262 µM)	0.5 µg/mL (≈ 1.09 µM)	0.03 µg/mL (≈ 0.0656 µM)	16 µg/mL (≈ 35 µM)	0.5 µg/mL (≈ 1.09 µM)	0.001 µg/mL (≈ 0.00219 µM)	0.5 µg/mL (≈ 1.09 µM)	16 µg/mL (≈ 35 µM)	32 µg/mL (≈ 69.9 µM)	1 µg/mL (≈ 2.19 µM)	0.25 µg/mL (≈ 0.546 µM)	1 µg/mL (≈ 2.19 µM)	32 µg/mL (≈ 69.9 µM)	16 µg/mL (≈ 35 µM)
CN(C)[C@@H]1C(O)=C(C(N)=O)C(=O)[C@@]2(O)C(O)=C3C(=O)c4c(O)ccc(-n5ccc(C#N)c5)c4C[C@H]3C[C@@H]12 [Compound A, [4S-(4aα,5aα,12aα)]-7-(3-Cyanopyrrol-1-yl)-4-(Dimethylamino)-1,4,4a,5,5a,6,11,12a-octahydro-3,10,12,12a-tetrahydroxy-1,11-dioxo-2-naphthacenecarboxamide]	8 µg/mL (≈ 15.9 µM)	2 µg/mL (≈ 3.96 µM)	4 µg/mL (≈ 7.93 µM)	0.5 µg/mL (≈ 0.991 µM)	0.015 µg/mL (≈ 0.0297 µM)	0.015 µg/mL (≈ 0.0297 µM)	> 128 µg/mL	1 µg/mL (≈ 1.98 µM)	0.001 µg/mL (≈ 0.00198 µM)	0.5 µg/mL (≈ 0.991 µM)	16 µg/mL (≈ 31.7 µM)	> 128 µg/mL	8 µg/mL (≈ 15.9 µM)	0.5 µg/mL (≈ 0.991 µM)	4 µg/mL (≈ 7.93 µM)	8 µg/mL (≈ 15.9 µM)	2 µg/mL (≈ 3.96 µM)
CN(C)c1cc(NC(=O)CNC(C)(C)C)c(O)c2c1C[C@H]1C[C@H]3[C@H](N(C)C)C(O)=C(C(N)=O)C(=O)[C@@]3(O)C(O)=C1C2=O [GAR-936]	0.5 µg/mL (≈ 0.854 µM)	0.5 µg/mL (≈ 0.854 µM)	0.5 µg/mL (≈ 0.854 µM)	1 µg/mL (≈ 1.71 µM)	0.25 µg/mL (≈ 0.427 µM)	0.5 µg/mL (≈ 0.854 µM)	32 µg/mL (≈ 54.6 µM)	1 µg/mL (≈ 1.71 µM)	0.12 µg/mL (≈ 0.205 µM)	1 µg/mL (≈ 1.71 µM)	0.5 µg/mL (≈ 0.854 µM)	2 µg/mL (≈ 3.41 µM)	32 µg/mL (≈ 54.6 µM)	–	0.5 µg/mL (≈ 0.854 µM)	0.5 µg/mL (≈ 0.854 µM)	0.06 µg/mL (≈ 0.102 µM)
CN(C)CC(=O)Nc1cc(-n2ccc(C=O)c2)c2c(c1O)C(=O)C1=C(O)[C@]3(O)C(=O)C(C(N)=O)=C(O)[C@@H](N(C)C)[C@@H]3C[C@@H]1C2 [Compound C]	0.06 µg/mL (≈ 0.0987 µM)	0.125 µg/mL (≈ 0.206 µM)	0.004 µg/mL (≈ 0.00658 µM)	4 µg/mL (≈ 6.58 µM)	0.015 µg/mL (≈ 0.0247 µM)	0.125 µg/mL (≈ 0.206 µM)	32 µg/mL (≈ 52.7 µM)	1 µg/mL (≈ 1.65 µM)	0.002 µg/mL (≈ 0.00329 µM)	1 µg/mL (≈ 1.65 µM)	1 µg/mL (≈ 1.65 µM)	125 µg/mL (≈ 206 µM)	16 µg/mL (≈ 26.3 µM)	0.03 µg/mL (≈ 0.0494 µM)	16 µg/mL (≈ 26.3 µM)	0.25 µg/mL (≈ 0.411 µM)	0.03 µg/mL (≈ 0.0494 µM)
CN(C)[C@@H]1C(O)=C(C(N)=O)C(=O)[C@@]2(O)C(O)=C3C(=O)c4c(O)ccc(-n5ccc(C=O)c5)c4C[C@H]3C[C@@H]12 [Compound B, [4S-(4aα,5aα,12aα)]-4-(Dimethylamino)-7-(1H-pyrrol-1-yl-3-carboxaldehyde)-1,4,4a,5,5a,6,11,12a-octahydro-3,10,12,12a-tetrahydroxy-1,11-dioxo-2-naphthacenecarboxamide]	> 128 µg/mL	2 µg/mL (≈ 3.94 µM)	8 µg/mL (≈ 15.8 µM)	0.25 µg/mL (≈ 0.493 µM)	0.015 µg/mL (≈ 0.0296 µM)	0.015 µg/mL (≈ 0.0296 µM)	> 128 µg/mL	1 µg/mL (≈ 1.97 µM)	0.008 µg/mL (≈ 0.0158 µM)	1 µg/mL (≈ 1.97 µM)	> 128 µg/mL	> 128 µg/mL	> 128 µg/mL	0.5 µg/mL (≈ 0.985 µM)	32 µg/mL (≈ 63.1 µM)	32 µg/mL (≈ 63.1 µM)	2 µg/mL (≈ 3.94 µM)
